Data: publication PMC9037210, “Novel 3-(6-methylpyridin-2-yl)coumarin-based chalcones as selective inhibitors of cancer-related carbonic anhydrases IX and XII endowed with anti-proliferative activity” (Journal of Enzyme Inhibition and Medicinal Chemistry, 2022)

What was measured:
HOP-92 = test: NCI single (10 µM) dose SRB screening, HOP-92; assay type: cell-based, human; conditions: 10 µM single dose, HOP-92, NSC lung cancer
Procedure: (§1) Following NCI protocol, sixteen MPCs were screened for their potential in vitro anticancer effects against human 59 cancer cell panels including prostate, leukaemia melanoma, colon, breast, CNS, renal, NSCLC, and ovarian cancers by National Cancer Institute (USA)[30].
(§2) The antiproliferative activities of MPC 3 and MPCs 5a–o were first evaluated in a 10 µM dose assay, with SRB assay used to determine cell survival and proliferation. […] The results of the cell growth inhibitory activities for MPCs 5g and 5l towards the different treated tumour cell lines were presented as GI% and presented in Table 3.
(§3) The anticancer test was conducted using the methods of the Drug Evaluation Branch, National Cancer Institute, Bethesda, MD, using 59 human tumour cell lines derived from nine human tissues. The GI50, TGI, and LC50 dose-response parameters were calculated for each medication.

SF-268 = test: NCI single (10 µM) dose SRB screening, SF-268; assay type: cell-based, human; conditions: 10 µM single dose, SF-268, CNS cancer
Procedure: as §1, §2, §3

HL-60(TB) = test: NCI single (10 µM) dose SRB screening, HL-60(TB); assay type: cell-based, human; conditions: 10 µM single dose, Leukaemia
Procedure: as §1, §2, §3

DU-145 = test: NCI single (10 µM) dose SRB screening, DU-145; assay type: cell-based, human; conditions: 10 µM single dose, DU-145, Prostate cancer
Procedure: as §1, §2, §3

HT29 = test: NCI single (10 µM) dose SRB screening, HT29; assay type: cell-based, human; conditions: 10 µM single dose, HT29, Colon cancer
Procedure: as §1, §2, §3

UACC-62 = test: NCI single (10 µM) dose SRB screening, UACC-62; assay type: cell-based, human; conditions: 10 µM single dose, UACC-62, Melanoma
Procedure: as §1, §2, §3

SR = test: NCI single (10 µM) dose SRB screening, SR; assay type: cell-based, human; conditions: 10 µM single dose, Leukaemia
Procedure: as §1, §2, §3

SW-620 = test: NCI single (10 µM) dose SRB screening, SW-620; assay type: cell-based, human; conditions: 10 µM single dose, SW-620, Colon cancer
Procedure: as §1, §2, §3

SN 12 C = test: NCI single (10 µM) dose SRB screening, SN 12 C; assay type: cell-based, human; conditions: 10 µM single dose, Renal cancer
Procedure: as §1, §2, §3

HOP-62 = test: NCI single (10 µM) dose SRB screening, HOP-62; assay type: cell-based, human; conditions: 10 µM single dose, HOP-62, NSC lung cancer
Procedure: as §1, §2, §3

MDA-MB-435 = test: NCI single (10 µM) dose SRB screening, MDA-MB-435; assay type: cell-based, human; conditions: 10 µM single dose, MDA-MB-435, Melanoma
Procedure: as §1, §2, §3

[1] = test system: 59 human tumour cell lines; test: NCI single (10 µM) dose screening, whole panel; assay type: cell-based; conditions: 10 µM single dose; for Sensitive cells no.: number of the 59 cell lines with GI % more than 20%; for inhibition at 10 µM: Homo sapiens, SRB assay, mean over NCI panel, read-out: mean percentage growth inhibition (mean% GI)
Procedure: as §1, §2, §3

HCT-15 = test: NCI single (10 µM) dose SRB screening, HCT-15; assay type: cell-based, human; conditions: 10 µM single dose, HCT-15, Colon cancer
Procedure: as §1, §2, §3

hCA IX = target: T1, hCA IX (Homo sapiens, UniProt Q16790); test: stopped-flow CO2 hydrase assay, hCA IX; assay type: biochemical; conditions: for Selectivity index (SI) (KI off-target CA/KI target CA) Towards hCA IX: ratio of KI for hCA I and II relative to hCA IX; for Ki: stopped-flow, incubation time of 6 h, mean of three assays, read-out: KI CA IX
T1 construct: made in house
Procedure: (§4) The newly synthesised MPCs (3 and 5a–o) were assessed for their CA inhibition activity employing the stopped-flow CO2 hydrase assay[29] for constitutional hCA (I/II) isoforms and cancer-linked hCA (IX/XII) isoforms.
(§5) The CA inhibition activity for the herein reported MPC derivatives was evaluated against the hCA isoforms I, II, IX, and XII using stopped-flow CO2 hydrase test[7]^,[33–36] (see the Supplementary Material).
(§6) Carbonic anhydrase inhibition assay
(§7) The carbonic anhydrase catalyzed CO2 hydration actions for all coumarin-based […]
(§8) Photophysics stopped-flow. The enzymes are recombinant proteins prepared in our lab. Phenol red (at a concentration of 0.2 mM) has been used as indicator, working at […]
(§9) mM Na2SO4 (for maintaining constant the ionic strength), following the initial rates of the CA-catalyzed CO2 hydration reaction for a period of 10-100 s. The CO2 concentrations ranged from 1.7 to 17 mM for the determination of the kinetic parameters and inhibition constants. For each inhibitor at least six traces of the initial 5-10% of the reaction have been used for determining the initial velocity. The uncatalyzed rates were determined in the same manner and subtracted from the total observed rates. Stock solutions of inhibitor (0.1 mM) were prepared in distilled-deionized water and dilutions up to 0.01 nM were done thereafter with the assay buffer. Inhibitor and enzyme solutions were preincubated together for 6 hrs. at room temperature prior to assay, in order to allow for the formation of the E-I complex. The inhibition constants were obtained by non-linear least-squares methods using PRISM 3 and the Cheng-Prusoff equation, and represent the mean from at least three different

UACC-257 = test: NCI single (10 µM) dose SRB screening, UACC-257; assay type: cell-based, human; conditions: 10 µM single dose, UACC-257, Melanoma
Procedure: as §1, §2, §3

OVCAR-3 = test: NCI single (10 µM) dose SRB screening, OVCAR-3; assay type: cell-based, human; conditions: 10 µM single dose, OVCAR-3, Ovarian cancer
Procedure: as §1, §2, §3

SF-295 = test: NCI single (10 µM) dose SRB screening, SF-295; assay type: cell-based, human; conditions: 10 µM single dose, SF-295, CNS cancer
Procedure: as §1, §2, §3

MDA-MB-468 = test: NCI single (10 µM) dose SRB screening, MDA-MB-468; assay type: cell-based, human; conditions: 10 µM single dose, MDA-MB-468, Breast cancer
Procedure: as §1, §2, §3

CAKI-1 = test: NCI single (10 µM) dose SRB screening, CAKI-1; assay type: cell-based, human; conditions: 10 µM single dose, CAKI-1, Renal cancer
Procedure: as §1, §2, §3

IGROV1 = test: NCI single (10 µM) dose SRB screening, IGROV1; assay type: cell-based, human; conditions: 10 µM single dose, IGROV1, Ovarian cancer
Procedure: as §1, §2, §3

NCI/ADR-RES = test: NCI single (10 µM) dose SRB screening, NCI/ADR-RES; assay type: cell-based, human; conditions: 10 µM single dose, Ovarian cancer
Procedure: as §1, §2, §3

SNB-75 = test: NCI single (10 µM) dose SRB screening, SNB-75; assay type: cell-based, human; conditions: 10 µM single dose, SNB-75, CNS cancer
Procedure: as §1, §2, §3

hCA II = target: T2, hCA II (Homo sapiens, UniProt P00918); test: stopped-flow CO2 hydrase assay, hCA II; assay type: biochemical; conditions: incubation time of 6 h, mean of three assays, read-out: KI CA II
T2 construct: made in house
Procedure: as §4, §5, §6, §7, §8, §9

ACHN = test: NCI single (10 µM) dose SRB screening, ACHN; assay type: cell-based, human; conditions: 10 µM single dose, Renal cancer
Procedure: as §1, §2, §3

SK-MEL-2 = test: NCI single (10 µM) dose SRB screening, SK-MEL-2; assay type: cell-based, human; conditions: 10 µM single dose, SK-MEL-2, Melanoma
Procedure: as §1, §2, §3

MCF7 = test: NCI single (10 µM) dose SRB screening, MCF7; assay type: cell-based, human; conditions: 10 µM single dose, MCF7, Breast cancer
Procedure: as §1, §2, §3

PC-3 = test: NCI single (10 µM) dose SRB screening, PC-3; assay type: cell-based, human; conditions: 10 µM single dose, PC-3, Prostate cancer
Procedure: as §1, §2, §3

SF-539 = test: NCI single (10 µM) dose SRB screening, SF-539; assay type: cell-based, human; conditions: 10 µM single dose, SF-539, CNS cancer
Procedure: as §1, §2, §3

Compound | GI % (HOP-92) | GI % (SF-268) | GI % (HL-60(TB)) | GI % (DU-145) | GI % (HT29) | GI % (UACC-62) | GI % (SR) | GI % (SW-620) | GI % (SN 12 C) | GI % (HOP-62) | GI % (MDA-MB-435) | Sensitive cells no. [1] | inhibition at 10 µM [1] | GI % (HCT-15) | Selectivity index (SI) (KI off-target CA/KI target CA) Towards hCA IX (hCA IX) | Ki (hCA IX) | GI % (UACC-257) | GI % (OVCAR-3) | GI % (SF-295) | GI % (MDA-MB-468) | other results
Cc1nc(-c2cc3ccccc3oc2=O)ccc1C(=O)/C=C/c1ccc(N2CCOCC2)cc1 [Compound 5g, 3-(6-Methyl-5-[(2E)-3-[4-(morpholin-4-yl)phenyl]prop-2-enoyl]pyridin-2-yl)-2H-chromen-2-one] | – (Only GI % more than 20% are displayed.) | 24% | 61% | – (Only GI % more than 20% are displayed.) | – (Only GI % more than 20% are displayed.) | 47% | 73% | – (Only GI % more than 20% are displayed.) | – (Only GI % more than 20% are displayed.) | – (Only GI % more than 20% are displayed.) | 121% | 31 | 28% | 45% | >8.33 | 12 µM | – (Only GI % more than 20% are displayed.) | – (Only GI % more than 20% are displayed.) | 33% | 54% | GI % (CAKI-1): 34%; GI % (IGROV1): – (Only GI % more than 20% are displayed.); GI % (NCI/ADR-RES): 32%; GI % (SNB-75): 41%; Ki (hCA II): > 100 µM; GI % (ACHN): 29%; GI % (SK-MEL-2): – (Only GI % more than 20% are displayed.); GI % (MCF7): 48%; GI % (PC-3): – (Only GI % more than 20% are displayed.); GI % (SF-539): 54%
Cc1nc(-c2cc3ccccc3oc2=O)ccc1C(=O)/C=C/c1ccccn1 [Compound 5l, 3-(6-Methyl-5-[(2E)-3-(pyridin-2-yl)prop-2-enoyl]pyridin-2-yl)-2H-chromen-2-one] | – (Only GI % more than 20% are displayed.) | 21% | 67% | 52% | 97% | 28% | 112% | 98% | 52% | – (Only GI % more than 20% are displayed.) | 29% | 42 | 50% | 133% | >26.32 | 3.8 µM | – (Only GI % more than 20% are displayed.) | 53% | 28% | 39% | GI % (CAKI-1): 39%; GI % (IGROV1): 93%; GI % (NCI/ADR-RES): 22%; GI % (SNB-75): 43%; Ki (hCA II): > 100 µM; GI % (ACHN): 41%; GI % (SK-MEL-2): – (Only GI % more than 20% are displayed.); GI % (MCF7): 91%; GI % (PC-3): 31%; GI % (SF-539): 97%
